# Data: ChEMBL document CHEMBL4819007, “Does targeting Arg98 of FimH lead to high affinity antagonists?” (Eur J Med Chem, 2021)
# pKd: −log10 of the molar value.
# What was measured:
# [1] = target: Type 1 fimbrin D-mannose specific adhesin (Escherichia coli K-12, UniProt P08191); test: Antagonist activity at recombinant 6His-tagged thrombin cleavage site of FimH Lectin domain expressed in Escherichia coli HM125 assessed as dissociation constant incubated for 24 hrs in presence of FITC-labeled tracer by competitive fluorescence polarization assay
# [2] = Antagonist activity at recombinant 6His-tagged thrombin cleavage site of FimH Lectin domain R98A mutant expressed in Escherichia coli HM125 assessed as dissociation constant measured after 24 hrs by fluorescence polarization assay
# Chain of Type 1 fimbrin D-mannose specific adhesin (P08191 whole entry, the tested form may be a part): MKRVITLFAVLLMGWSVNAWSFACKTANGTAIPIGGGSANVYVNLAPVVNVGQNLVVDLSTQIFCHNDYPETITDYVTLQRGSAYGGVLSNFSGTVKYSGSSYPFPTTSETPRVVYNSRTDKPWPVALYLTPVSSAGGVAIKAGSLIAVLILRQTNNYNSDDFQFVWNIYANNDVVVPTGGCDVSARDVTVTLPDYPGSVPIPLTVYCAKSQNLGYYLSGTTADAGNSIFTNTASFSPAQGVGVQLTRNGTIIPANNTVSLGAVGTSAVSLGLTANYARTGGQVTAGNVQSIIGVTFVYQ
SMILES,pKd [1],pKd [2]
CCCCCCCO[C@H]1O[C@H](CO)[C@@H](O)[C@H](O)[C@@H]1O,7.43,7.45
OC[C@H]1O[C@H](n2cc(-c3ccccc3)nn2)[C@@H](O)[C@@H](O)[C@@H]1O,6.47,6.53
COC(=O)COc1ccc(-c2cn([C@H]3O[C@H](CO)[C@@H](O)[C@H](O)[C@@H]3O)nn2)cc1,7.18,8.14
COC(=O)COc1cccc(-c2cn([C@H]3O[C@H](CO)[C@@H](O)[C@H](O)[C@@H]3O)nn2)c1,6.76,7.65
CCOC(=O)CCCCCCOc1cccc(-c2cn([C@H]3O[C@H](CO)[C@@H](O)[C@H](O)[C@@H]3O)nn2)c1,7.16,7.87
O=C(O)COc1ccc(-c2cn([C@H]3O[C@H](CO)[C@@H](O)[C@H](O)[C@@H]3O)nn2)cc1,6.77,7.84
CCOC(=O)CCCCCOc1cccc(-c2cn([C@H]3O[C@H](CO)[C@@H](O)[C@H](O)[C@@H]3O)nn2)c1,7.31,7.94
CCOC(=O)CCCCCCCOc1ccc(-c2cn([C@H]3O[C@H](CO)[C@@H](O)[C@H](O)[C@@H]3O)nn2)cc1,7.37,8.06
CCOC(=O)CCCCOc1ccc(-c2cn([C@H]3O[C@H](CO)[C@@H](O)[C@H](O)[C@@H]3O)nn2)cc1,7.30,8.00
O=C(O)CCCCCCOc1ccc(-c2cn([C@H]3O[C@H](CO)[C@@H](O)[C@H](O)[C@@H]3O)nn2)cc1,7.42,8.12
O=C(O)COc1cccc(-c2cn([C@H]3O[C@H](CO)[C@@H](O)[C@H](O)[C@@H]3O)nn2)c1,6.45,7.54
O=C(O)CCCOc1cccc(-c2cn([C@H]3O[C@H](CO)[C@@H](O)[C@H](O)[C@@H]3O)nn2)c1,6.75,7.68
CCOC(=O)CCCCCCOc1ccc(-c2cn([C@H]3O[C@H](CO)[C@@H](O)[C@H](O)[C@@H]3O)nn2)cc1,8.12,8.89
O=C(O)CCCOc1ccc(-c2cn([C@H]3O[C@H](CO)[C@@H](O)[C@H](O)[C@@H]3O)nn2)cc1,7.20,8.02
O=C(O)CCCCCOc1cccc(-c2cn([C@H]3O[C@H](CO)[C@@H](O)[C@H](O)[C@@H]3O)nn2)c1,7.25,7.76
O=C(O)CCCCCOc1ccc(-c2cn([C@H]3O[C@H](CO)[C@@H](O)[C@H](O)[C@@H]3O)nn2)cc1,7.44,8.12
O=C(O)CCCCOc1ccc(-c2cn([C@H]3O[C@H](CO)[C@@H](O)[C@H](O)[C@@H]3O)nn2)cc1,7.31,7.95
CCOC(=O)CCCOc1ccc(-c2cn([C@H]3O[C@H](CO)[C@@H](O)[C@H](O)[C@@H]3O)nn2)cc1,7.22,8.09
CCOC(=O)CCCCCOc1ccc(-c2cn([C@H]3O[C@H](CO)[C@@H](O)[C@H](O)[C@@H]3O)nn2)cc1,7.49,8.18
O=C(O)CCCCCCCOc1ccc(-c2cn([C@H]3O[C@H](CO)[C@@H](O)[C@H](O)[C@@H]3O)nn2)cc1,7.35,8.00
CCOC(=O)CCCCCCCOc1cccc(-c2cn([C@H]3O[C@H](CO)[C@@H](O)[C@H](O)[C@@H]3O)nn2)c1,6.97,7.60
COC(=O)CCCOc1cccc(-c2cn([C@H]3O[C@H](CO)[C@@H](O)[C@H](O)[C@@H]3O)nn2)c1,6.84,7.80
CCOC(=O)CCCCOc1cccc(-c2cn([C@H]3O[C@H](CO)[C@@H](O)[C@H](O)[C@@H]3O)nn2)c1,7.19,7.79
O=C(O)CCCCCCCOc1cccc(-c2cn([C@H]3O[C@H](CO)[C@@H](O)[C@H](O)[C@@H]3O)nn2)c1,< 6.00,
O=C(O)CCCCCCOc1cccc(-c2cn([C@H]3O[C@H](CO)[C@@H](O)[C@H](O)[C@@H]3O)nn2)c1,6.27,7.20
O=C(O)CCCCOc1cccc(-c2cn([C@H]3O[C@H](CO)[C@@H](O)[C@H](O)[C@@H]3O)nn2)c1,7.11,7.79
